Values after ≈ are worked out from the molar mass of the structure shown. Active and inactive are the calls of the source. The rule behind the calls is not given here.
Tests used:
[1] = Solubility of compound in water by HPLC analysis; type: physicochemical
[2] = Cytotoxicity in human HLF upto 0.625 uM; type: toxicity, cell-based
HLF [3] = experiment: Upregulation of ADAM 10 expression in TGF-beta1-induced human HLF at 5 to 20 nM; type: functional, cell-based; conditions: dose 5-20 nM
HLF [4] = experiment: Inhibition of sEphrin-B2 expression level in human HLF at 20 nM; type: functional, cell-based
HLF [5] = experiment: Inhibition of TGF-betal induced alpha-SMA production in human HLF at 5 to 20 nM incubated for 2 hrs by DAPI staining based laser scanning confocal microscopic analysis; type: functional, cell-based; conditions: dose 5-20 nM
[6] = AUC (0 to infinity) in Kunming mouse at 1 mg/kg, iv measured upto 48 hrs by LC/MS analysis; type: ADME, organism-based; conditions: in vivo
[7] = Half life in Kunming mouse at 1 mg/kg, iv measured upto 48 hrs by LC/MS analysis; type: ADME, organism-based; conditions: in vivo
[8] = MRT (0 to t) in Kunming mouse at 1 mg/kg, iv measured upto 48 hrs by LC/MS analysis; type: ADME, organism-based; conditions: in vivo
[9] = MRT(0 to infinity) in Kunming mouse at 1 mg/kg, iv measured upto 48 hrs by LC/MS analysis; type: ADME, organism-based; conditions: in vivo
[10] = Volume of distribution in Kunming mouse at 1 mg/kg, iv measured upto 48 hrs by LC/MS analysis; type: ADME, organism-based; conditions: in vivo
[11] = Clearance in Kunming mouse at 1 mg/kg, iv measured upto 48 hrs by LC/MS analysis; type: ADME, organism-based; conditions: in vivo
[12] = Stability of compound in PBS buffer at pH 7.4 assessed as half life; type: physicochemical
[13] = Stability in mouse plasma assessed as half life measured upto 24 hrs by HPLC analysis; type: ADME, cell-free
[14] = Stability in human plasma assessed as half life measured upto 24 hrs by HPLC analysis; type: ADME, cell-free
[15] = (§1) Prodrug conversion of the compound in phosphate buffer saline at pH 6.5 assessed as (6aS,7aS,8R,8aR,9aS,9bS,10aS,10bS)-8-hydroxy-8a-isopropyl-10b-methyl-2,5,5b,6,6a,8,8a,9a,9b,10b-decahydrotris(oxireno)[2',3':4b,5;2'',3'':6,7;2''',3''':8a,9]phenanthro[1,2-c]furan-3(1H)-one formation by measuring half life; type: ADME
[16] = as §1, with “7.4” for “6.5”; type: ADME
[17] = as §1, with “8” for “6.5”; type: ADME
Mus musculus [18] = experiment: Anti-fibrotic activity in bleomycin-induced pulmonary fibrosis C57BL/6 mouse model assessed as increase in body weight at 0.33 mg/kg, ip pretreated with bleomycin for 5 days and followed by compound administration for 14 days; type: functional, organism-based; conditions: time 14.0 day
Mus musculus [19] = experiment: Anti-fibrotic activity in bleomycin-induced pulmonary fibrosis C57BL/6 mouse model assessed as decrease in lung index at 0.33 mg/kg, ip pretreated with bleomycin for 5 days and followed by compound administration for 15 days; type: functional, organism-based; conditions: time 15.0 day
[20] = Toxicity in C57BL/6 mouse assessed as change in ALT level at 0.33 mg/kg, ip measured after 15 days; type: organism-based; conditions: in vivo, 360 h, time 15 day
[21] = Toxicity in C57BL/6 mouse assessed as change in AST level at 0.33 mg/kg, ip measured after 15 days; type: organism-based; conditions: in vivo, 360 h, time 15 day
[22] = Toxicity in C57BL/6 mouse assessed as change in creatinine level at 0.33 mg/kg, ip measured after 15 days; type: organism-based; conditions: in vivo, 360 h, time 15 day
[23] = Toxicity in C57BL/6 mouse assessed as change in BUN level at 0.33 mg/kg, ip measured after 15 days; type: organism-based; conditions: in vivo, 360 h, time 15 day
[24] = Toxicity in C57BL/6 mouse assessed as pathological changes in liver at 0.33 mg/kg, ip measured after 15 days; type: organism-based; conditions: in vivo, 360 h, time 15 day
[25] = Toxicity in C57BL/6 mouse assessed as pathological changes in kidney at 0.33 mg/kg, ip measured after 15 days; type: organism-based; conditions: in vivo, 360 h, time 15 day
Mus musculus [26] = experiment: Anti-fibrotic activity in bleomycin-induced pulmonary fibrosis C57BL/6 mouse model assessed as infiltrated interstitial matrix in lung at 0.33 mg/kg, ip pretreated with bleomycin for 5 days and followed by compound administration for 15 days by H and E staining based analysis; type: functional, organism-based; conditions: time 15.0 day
Mus musculus [27] = experiment: Anti-fibrotic activity in bleomycin-induced pulmonary fibrosis C57BL/6 mouse model assessed as infiltrated interstitial matrix in lung at 60 mg/kg, po pretreated with bleomycin for 5 days and followed by compound administration for 15 days by H and E staining based analysis; type: functional, organism-based; conditions: time 15.0 day
Mus musculus [28] = experiment: Anti-fibrotic activity in bleomycin-induced pulmonary fibrosis C57BL/6 mouse model assessed as appearance of red collagen deposits in lung at 0.33 mg/kg, ip pretreated with bleomycin for 5 days and followed by compound administration for 15 days by H and E staining based analysis; type: functional, organism-based; conditions: time 15.0 day
Mus musculus [29] = experiment: Anti-fibrotic activity in bleomycin-induced pulmonary fibrosis C57BL/6 mouse model assessed as attenuation of collagen accumulation in lung at 0.33 mg/kg, ip pretreated with bleomycin for 5 days and followed by compound administration for 15 days by Masson staining based analysis; type: functional, organism-based; conditions: time 15.0 day
Mus musculus [30] = experiment: Anti-fibrotic activity in bleomycin-induced pulmonary fibrosis C57BL/6 mouse model at 0.66 mg/kg, ip pretreated with bleomycin for 5 days and followed by compound administration for 15 days; type: functional, organism-based; conditions: time 15.0 day
Mus musculus [31] = experiment: Anti-fibrotic activity in bleomycin-induced pulmonary fibrosis C57BL/6 mouse model assessed as decrease in myofibroblast by measuring alpha-SMA level at 0.33 to 0.66 mg/kg, ip pretreated with bleomycin for 5 days and followed by compound administration for 15 days; type: functional, organism-based; conditions: dose 0.33-0.66 mg/kg, time 15.0 day
Mus musculus [32] = experiment: Anti-fibrotic activity in bleomycin-induced pulmonary fibrosis C57BL/6 mouse model assessed as decrease in hydroxyproline level in lung at 0.33 to 0.66 mg/kg, ip pretreated with bleomycin for 5 days and followed by compound administration for 15 days; type: functional, organism-based; conditions: dose 0.33-0.66 mg/kg, time 15.0 day
Mus musculus [33] = experiment: Anti-fibrotic activity in bleomycin-induced pulmonary fibrosis C57BL/6 mouse model assessed as decrease in hydroxyproline level in lung at 0.33 to 0.66 mg/kg, ip pretreated with bleomycin from day 1 and followed by compound administration for 15 days; type: functional, organism-based; conditions: dose 0.33-0.66 mg/kg, time 15.0 day
Mus musculus [34] = experiment: Anti-fibrotic activity in bleomycin-induced pulmonary fibrosis C57BL/6 mouse model assessed as decrease in TGF-beta1 level in BALF at 0.66 mg/kg, ip pretreated with bleomycin for 5 days and followed by compound administration for 15 days by ELISA analysis; type: functional, organism-based; conditions: time 15.0 day
Mus musculus [35] = experiment: Anti-fibrotic activity in bleomycin-induced pulmonary fibrosis C57BL/6 mouse model assessed as decrease in TGF-beta1 level in BALF at 0.66 mg/kg, ip pretreated with bleomycin from day 1 and followed by compound administration for 15 days by ELISA analysis; type: functional, organism-based; conditions: time 15.0 day
Mus musculus [36] = experiment: Anti-fibrotic activity in bleomycin-induced pulmonary fibrosis C57BL/6 mouse model assessed as downregulation of ADAM 10 level in BALF at 0.66 mg/kg, ip pretreated with bleomycin for 5 days and followed by compound administration for 15 days by ELISA analysis; type: functional, organism-based; conditions: time 15.0 day
Mus musculus [37] = experiment: Anti-fibrotic activity in bleomycin-induced pulmonary fibrosis C57BL/6 mouse model assessed as downregulation of sEphrin-B2 level in BALF at 0.33 to 0.66 mg/kg, ip pretreated with bleomycin for 5 days and followed by compound administration for 15 days by ELISA analysis; type: functional, organism-based; conditions: dose 0.33-0.66 mg/kg, time 15.0 day
Mus musculus [38] = experiment: Anti-fibrotic activity in bleomycin-induced pulmonary fibrosis C57BL/6 mouse model assessed as increase in body weight at 60 mg/kg, po pretreated with bleomycin for 5 days and followed by compound administration for 14 days; type: functional, organism-based; conditions: time 14.0 day
Mus musculus [39] = experiment: Anti-fibrotic activity in bleomycin-induced pulmonary fibrosis C57BL/6 mouse model assessed as decrease in lung index at 60 mg/kg, po pretreated with bleomycin for 5 days and followed by compound administration for 15 days; type: functional, organism-based; conditions: time 15.0 day
Mus musculus [40] = experiment: Anti-fibrotic activity in bleomycin-induced pulmonary fibrosis C57BL/6 mouse model assessed as appearance of red collagen deposits in lung at 60 mg/kg, po pretreated with bleomycin for 5 days and followed by compound administration for 15 days by H and E staining based analysis; type: functional, organism-based; conditions: time 15.0 day
Mus musculus [41] = experiment: Anti-fibrotic activity in bleomycin-induced pulmonary fibrosis C57BL/6 mouse model assessed as decrease in myofibroblast by measuring alpha-SMA level at 60 mg/kg, po pretreated with bleomycin for 5 days and followed by compound administration for 15 days; type: functional, organism-based; conditions: time 15.0 day
Mus musculus [42] = experiment: Anti-fibrotic activity in bleomycin-induced pulmonary fibrosis C57BL/6 mouse model assessed as decrease in hydroxyproline level in lung at 60 mg/kg, po pretreated with bleomycin for 5 days and followed by compound administration for 15 days; type: functional, organism-based; conditions: time 15.0 day
Mus musculus [43] = experiment: Anti-fibrotic activity in bleomycin-induced pulmonary fibrosis C57BL/6 mouse model assessed as decrease in hydroxyproline level in lung at 60 mg/kg, po pretreated with bleomycin from day 1 and followed by compound administration for 15 days; type: functional, organism-based; conditions: time 15.0 day

## CC(C)[C@]12O[C@H]1[C@@H]1O[C@]13[C@]1(O[C@H]1C[C@H]1C4=C(CC[C@@]13C)C(=O)OC4)[C@@H]2OC(=O)CCC(=O)[O-].[Na+] [OMTRIPTOLIDE SODIUM]
[1]
  solubility: 1.39 mg/mL

## CC(C)[C@]12O[C@H]1[C@@H]1O[C@]13[C@]1(O[C@H]1C[C@H]1C4=C(CC[C@@]13C)C(=O)OC4)[C@@H]2OCOP(=O)([O-])[O-].[Na+].[Na+] [MINNELIDE]
[1]
  solubility: 93.3 mg/mL

## CNCCN(C)C(=O)O[C@@H]1[C@@]2(C(C)C)O[C@H]2[C@@H]2O[C@]23[C@]12O[C@H]2C[C@H]1C2=C(CC[C@@]13C)C(=O)OC2
[1]
  solubility: 30.8 mg/mL (≈ 64.9 mM)
[2]
  Activity: Non-Toxic
HLF [3]
  Activity: Active
HLF [4]
  inhibition: Active
HLF [5]
  inhibition: Active
[6]
  AUC(0-inf): 1100 ng·h/mL
[7]
  t1/2: 7.72 h
[8]
  MRT last at 48 h: 11.5 h
[9]
  MRT inf: 14.8 h
[10]
  Vd: 0.119 L/kg
[11]
  CL: 15.2 mL/min/kg
[12]
  half-life: 17.7 h
[13]
  half-life: 17 h
[14]
  half-life: 16.4 h
[15]
  t1/2: 81.7 h
[16]
  t1/2: 17.7 h
[17]
  t1/2: 4.52 h
Mus musculus [18]
  Activity: Active
Mus musculus [19]
  Activity: Active
[20]
  Activity: Non-Toxic
[21]
  Activity: Non-Toxic
[22]
  Activity: Non-Toxic
[23]
  Activity: Non-Toxic
[24]
  Activity: Non-Toxic
[25]
  Activity: Non-Toxic
Mus musculus [26]
  Activity: Active
Mus musculus [27]
  Activity: Active
Mus musculus [28]
  Activity: Active
Mus musculus [29]
  Activity: Active
Mus musculus [30]
  Activity: Active
Mus musculus [31]
  Activity: Active
Mus musculus [32]
  Activity: Active
Mus musculus [33]
  Activity: Active
Mus musculus [34]
  Activity: Active
Mus musculus [35]
  Activity: Active
Mus musculus [36]
  Activity: Active
Mus musculus [37]
  Activity: Active

## CC(C)[C@]12O[C@H]1[C@@H]1O[C@]13[C@]1(O[C@H]1C[C@H]1C4=C(CC[C@@]13C)C(=O)OC4)[C@@H]2OC(=O)NCC1CCCN1 (some centres not stated)
[1]
  solubility: 8.99 mg/mL (≈ 18.5 mM)
[12]
  half-life: 2.46 h
[13]
  half-life: 1.79 h
[14]
  half-life: 1.45 h

## CC(C)[C@]12O[C@H]1[C@@H]1O[C@]13[C@]1(O[C@H]1C[C@H]1C4=C(CC[C@@]13C)C(=O)OC4)[C@@H]2OC(=O)NC1CCCCC1N (some centres not stated)
[1]
  solubility: 6.96 mg/mL (≈ 13.9 mM)
[12]
  half-life: 1.85 h
[13]
  half-life: 1.62 h
[14]
  half-life: 1.69 h

## COC(=O)c1ccc2c(c1)NC(=O)/C2=C(\Nc1ccc(N(C)C(=O)CN2CCN(C)CC2)cc1)c1ccccc1
Mus musculus [38]
  Activity: Active
Mus musculus [39]
  Activity: Active
Mus musculus [40]
  Activity: Active
Mus musculus [41]
  Activity: Active
Mus musculus [42]
  Activity: Active
Mus musculus [43]
  Activity: Active

## CC(C)[C@]12O[C@H]1[C@@H]1O[C@]13[C@]1(O[C@H]1C[C@H]1C4=C(CC[C@@]13C)C(=O)OC4)[C@@H]2OC(=O)NCCN
[1]
  solubility: 12.5 mg/mL (≈ 28 mM)
[12]
  half-life: 25.2 h
[13]
  half-life: 27.3 h
[14]
  half-life: 24.5 h
